Key:
SK-N-BE cells [1] = experiment: MTT assay, proliferation of SK-N-BE cells in the presence of EGF; format: cell-based; conditions: 10 ng/ml EGF plus 5 μM inhibitor, vs EGF-only control, T-test p<0.01
Method: SK-N-BE cells were cultured in the presence of 10 ng/ml EGF (control, which corresponds to “mock” in FIG. 26), in the presence of 10 ng/ml EGF and 5 μM of EGFR inhibitor AG1478, as well as in the presence of 10 ng/ml EGF and 5 μM of Ras inhibitor FTI277, and the cell proliferation was quantified by the MTT assay over time. FIG. 26 is a graph showing the proliferation of cells.

MYCN expression [2] = experiment: Immunoblot of EGF-induced MYCN expression in SK-N-BE cells with pathway inhibitors; format: cell-based; conditions: six hours, 10 ng/ml EGF, inhibitor concentrations shown in FIG. 27
Method: SK-N-BE cells were cultured for six hours in the presence of 10 ng/ml EGF and in the presence of an EGFR inhibitor AG1478, a Ras inhibitor FTI277, an ERK1/2 inhibitor U0126, a PI3Kinase inhibitor LY294002, a INK inhibitor SP600125 or a p38MAPK inhibitor SB203580 in each concentration shown in FIG. 27. Next, respective cells were collected, and the expression of MYCN was analyzed by an immunoblot method using an anti-MYCN antibody and an anti-actin antibody. FIG. 27 is a photograph showing a result of an immunoblot.

SK-N-BE cells [3] = experiment: MTT assay, proliferation of SK-N-BE cells after siRNA introduction; format: cell-based; conditions: vs negative control siRNA, day 4 and day 5 p<0.01
Method: (§1) To SK-N-BE cells derived from neuroblastoma, siRNA against NLRR1 was introduced so as to suppress the expression of NLRR1. As the siRNA, RNA fragment of the base sequences shown SEQ ID NOs: 3 and 4 were annealed and used.
(§2) After siRNA was introduced, the cells were cultured, and the cell proliferation was quantified by the MTT assay over time. As a control, cells into which Silencer (registered trademark) Negative Control #1 siRNA (Ambion) was introduced were used. FIG. 11 is a graph showing the proliferation of cells. […] FIG. 12 is a photograph of an immunoblot in which the expression of NLRR1 in the cells into which siRNA against NLRR1 was introduced and the control cells were detected by using an anti-NLRR1 rabbit polyclonal antibody. The anti-NLRR1 rabbit polyclonal antibody was prepared by immunizing a rabbit with a synthetic peptide corresponding to 693-712 residues of an amino acid sequence of NLRR1 (SEQ ID NO: 2) as an antigen. The result when an anti-actin antibody was used as the loading control is also shown.

NLRR1 = experiment: Immunoblot of NLRR1 expression after siRNA introduction; format: cell-based; conditions: SK-N-BE cells, anti-NLRR1 rabbit polyclonal antibody
Method: as §1, §2

SHEP21N cells = experiment: MTT assay, proliferation of SHEP21N cells forced to express MYCN; format: cell-based; conditions: absence of tetracycline (expression of MYCN increased)
Source text: To SHEP21N cells that were forced to express MYCN in the absence of tetracycline, siRNA against NLRR1 was introduced, and the cell proliferation was quantified by the MTT assay over time. FIG. 15 is a graph showing the proliferation of cells. In the absence of tetracycline (expression of MYCN was increased), the proliferation of cells was promoted as compared with the case in the presence of tetracycline (expression of MYCN was suppressed). When Silencer (registered trademark) Negative Control #1 siRNA was introduced in the absence of tetracycline (expression of MYCN was increased) as a control, the proliferation rate of cells was not changed.

MYCN expression [4] = experiment: Immunoblot of EGF-induced MYCN expression in SK-N-BE cells after siRNA introduction; format: cell-based; conditions: 10 hours, 10 ng/ml EGF
Method: SK-N-BE cells, SK-N-BE cells into which siRNA against NLRR1 was introduced, and SK-N-BE cells into which Silencer (registered trademark) Negative Control #1 siRNA was introduced were cultured for 10 hours in the presence of 10 ng/ml EGF, and the cells were collected. Next, these cells were subjected to an immunoblot method using an anti-MYCN antibody, an anti-NLRR1 rabbit polyclonal antibody and an anti-actin antibody, and expression of MYCN and NLRR1 in the protein level was detected. FIG. 16 is a photograph showing a result of immunoblot. The result of the cells into which control siRNA was introduced corresponds to “mock” in FIG. 16.

[5] = system: SK-N-AS cell line continuously expressing NLRR1; experiment: Flow cytometry of sub-G1 cells (apoptosis) under serum-free conditions; format: cell-based; conditions: SK-N-AS line continuously expressing NLRR1, serum-free 36 hours, PI staining
Source text: It is known that in the SK-N-AS neuroblastoma cell line, cell death is induced when serum is removed, and that the number of sub-G1 cells is increased from the flow cytometry analysis. SK-N-AS cells into which an empty vector plasmid was introduced (corresponding to “mock” on the left in FIG. 17), a cell line continuously expressing NLRR1 obtained by introducing a plasmid encoding NLRR1 into SK-N-AS cells (corresponding to “+NLRR1” in the middle of FIG. 17), and cells obtained by introducing siRNA against NLRR1 into this cell line continuously expressing NLRR1 (corresponding to “+siRNA+NLRR1” on the right of FIG. 17) were PI stained before and after the cells were cultured under the serum-free conditions for 36 hours, and analyzed by flow cytometry. The rate of the sub-G1 cells was evaluated as a rate of apoptosis. […] FIG. 18 is a graph showing the proportion of the number of sub-G1 cells to the total number of cells before and after culturing under the serum free conditions of respective cells based on the results of FIG. 17, in which the unit of the ordinate axis is %.

[6] = system: SK-N-BE cells, NLF cells, SH-SY5Y cells, SMS-SAN cells; experiment: MTT assay, EGF-induced proliferation of neuroblastoma-derived cells; format: cell-based; conditions: SK-N-BE cells with siRNA, 10 ng/ml EGF
Method: SK-N-BE cells, NLF cells, SH-SY5Y cells, SMS-SAN cells, which are cell lines derived from neuroblastoma, and SK-N-BE cells into which siRNA against NLRR1 was introduced were cultured in the presence and absence of 10 ng/ml EGF, and the cell proliferation was quantified by the MTT assay over time. FIG. 28 is a graph showing the cell proliferation, showing the change fold ratio of the proliferation of cells in the presence of EGF to the proliferation of cells in the absence of EGF.

[7] = system: phosphorylation of EGFR and ERK; experiment: Western blotting of EGFR and ERK phosphorylation in MCF-7 cells forced to express NLRR1; format: cell-based; conditions: MCF-7 cells forced to express NLRR1, 10 mM cyclodextrin 30 minutes 37° C., then EGF three minutes
Method: The effect of NLRR1 on EGF signal transduction in cells treated with cyclodextrin (methyl-β-cyclodextrin, mβCD) that inhibits lipid raft was examined. FIG. 39 is a photograph showing a result of an immunoblot. […] The cells were washed with the medium, and cultured for three minutes in a medium containing EGF with different concentrations. Then, the phosphorylation of EGFR and ERK was analyzed by Western blotting. With the expression of NLRR1, the enhancement of phosphorylation of EGFR and ERK by EGF was detected. […] From the result, it has been clarified that the enhancement of an EGF signal by NLRR1 needs the structure of lipid raft. Thus, it is thought that treatment of cancer using the combination of an antibody inhibiting NLRR1 and an inhibitor of lipid raft is effective.

MYCN protein expression = experiment: Immunoblot of MYCN protein induced by NLRR1 expression in SK-N-BE cells; format: cell-based; conditions: NLRR1 plasmid 1000 ng/ml, 12 hours, 1 μM AG1478 or 2 μM U0126
Method: An expression plasmid of NLRR1 tagged with a myc tag was introduced into SK-N-BE cells at the concentration of 1000 ng/ml. The cells were cultured for 12 hours in the presence of 1 μM of EGFR inhibitor AG1478 or 2 μM of ERK1/2 inhibitor U0126, and then the cells were collected and subjected to an immunoblot method using an anti-myc antibody, an anti-MYCN antibody and an anti-actin antibody. FIG. 34 is a photograph showing a result of an immunoblot.

[8] = system: SK-N-BE cells forced to express NLRR1; conditions: SK-N-BE cells forced to express NLRR1, presence vs absence of U0126, over time
Method: SK-N-BE cells that were forced to express NLRR1 were cultured in the presence and absence of ERK1/2 (ERK1 and ERK2) inhibitor, U0126. Furthermore, as a control, SK-N-BE cells into which a plasmid encoding NLRR1 was not introduced were cultured in the absence of U0126. The proliferation of these cells was quantified by an MTT assay over time. FIG. 23 is a graph showing a proliferation of cells. In the drawing, A denotes the proliferation of SK-N-BE cells forced to express NLRR1; B denotes the proliferation of SK-N-BE cells forced to express NLRR1 in the presence of U0126; and C denotes the proliferation of control cells.

Compound | proliferation of cells (MTT assay) (SK-N-BE cells [1]) | expression increase of MYCN by the induction of EGF (immunoblot) (MYCN expression [2]) | expression induction of MYCN protein by the expression of NLRR1 (immunoblot) (MYCN protein expression) | further results
COC(=O)[C@H](CCSC)NC(=O)c1ccc(NC[C@@H](N)CS)cc1-c1ccccc1 [FTI277] | the proliferation of cells is suppressed | expression increase of MYCN by the induction of EGF was inhibited |  | 
siRNA against NLRR1: annealed RNA fragments of SEQ ID NOs: 3 and 4, suppresses the expression of NLRR1 (chain 1 UCUUGGUUGAGCUGUGUAGUU; chain 2 AACUACACAGCUCAACCAAGA; RNA, backbone not given here; listed as Homo sapiens) |  |  |  | proliferation of cells (MTT assay) (SK-N-BE cells [3]): the proliferation of cells is suppressed; expression of NLRR1 (immunoblot) (NLRR1): the expression of NLRR1 was suppressed; proliferation of cells due to increased MYCN expression (MTT assay) (SHEP21N cells): the proliferation of cells due to the increase in the MYCN expression did not occur; induction of the expression of MYCN by EGF treatment (immunoblot) (MYCN expression [4]): the induction of the expression of MYCN by EGF treatment was suppressed; apoptosis (proportion of sub-G1 cells) [5]: the increase in the apoptosis was observed; EGF-induced cell proliferation (MTT assay, fold ratio with vs without EGF) [6]: EGF-induced cell proliferation was remarkably suppressed
methyl-β-cyclodextrin [mβCD] |  |  |  | enhancement of phosphorylation of EGFR and ERK by NLRR1 [7]: the enhancement of phosphorylation of EGFR and ERK by NLRR1 was not observed
COc1cc2ncnc(Nc3cccc(Cl)c3)c2cc1OC [AG1478] | the proliferation of cells is suppressed | expression increase of MYCN by the induction of EGF was inhibited | expression induction of MYCN protein by the expression of NLRR1 is suppressed | 
N#CC(=C(/N)Sc1ccccc1N)/C(C#N)=C(\N)Sc1ccccc1N [U0126] |  | expression increase of MYCN by the induction of EGF was inhibited | expression induction of MYCN protein by the expression of NLRR1 is suppressed | proliferation of cells (MTT assay) [8]: the cell proliferation was suppressed
C[S+]([O-])c1ccc(-c2nc(-c3ccncc3)c(-c3ccc(F)cc3)[nH]2)cc1 (stereo not shown) [SB203580] |  | expression increase of MYCN by the induction of EGF was not inhibited |  | 

Source: patent publication US20110124006A1, “METHOD FOR SCREENING OF THERAPEUTIC AGENT FOR CANCER” (Hismitsu Pharmaceutical Co., Inc., priority 2008, published 2011)
